Source: the NIST ThermoML archive (doi:10.1021/je0340248)
Numbers after ± are expanded uncertainties.

Settings: 101.33 kPa, Liquid

Row | SMILES | mass density (298.15 K) [kg/m3] | speed of sound (298.15 K) [m/s] | viscosity (298.15 K) [mPa·s] | mass density (303.15 K) [kg/m3] | mass density (308.15 K) [kg/m3] | speed of sound (308.15 K) [m/s] | viscosity (308.15 K) [mPa·s] | mass density (313.15 K) [kg/m3]
1 | OCCOCCO [diethylene glycol] | 1113.51 ± 0.32 | 1580 ± 2 | 30.01 ± 0.42 | 1109.56 ± 0.31 | 1106.22 ± 0.3 | 1550 ± 2 | 16.97 ± 0.33 | 1103.02 ± 0.3
2 | CCCCOC(C)=O [butyl ethanoate] | 876.19 ± 0.94 | 1190 ± 2 | 0.674 ± 0.012 | 871.27 ± 0.96 | 865.43 ± 0.98 | 1150 ± 2 | 0.594 ± 0.011 | 860.48 ± 1
3 | CCOC(C)=O [ethyl acetate] | 894.55 ± 0.88 | 1138 ± 2 | 0.428 ± 0.008 | 888.48 ± 0.9 | 882.5 ± 0.92 | 1095 ± 2 | 0.387 ± 0.008 | 875.97 ± 0.94
4 | COC(C)=O [methyl ethanoate] | 926.8 ± 0.78 | 1150 ± 2 | 0.384 ± 0.008 | 919.7 ± 0.8 | 915.22 ± 0.81 | 1103 ± 2 | 0.351 ± 0.007 | 908.33 ± 0.84
5 | OCCOCCOCCO [triethylene glycol] | 1119.59 ± 0.75 | 1612 ± 2 | 34.4 ± 0.46 | 1115.88 ± 0.69 | 1111.96 ± 0.63 | 1586 ± 2 | 21.31 ± 0.35 | 1109.53 ± 0.6
